The source of these data is patent US20240376514A1, “BACTERIAL BIOSENSORS FOR MONITORING AND DETECTION OF NAPHTHENIC ACIDS IN THE ENVIRONMENT” (THE GOVERNORS OF ATHABASCA UNIVERSITY, priority 2021, published 2024).

The test system of one assay is atuA. In words: atuA promoter-luxCDABE biosensor gene expression. The note with it: Pseudomonas OST1909. The class given is cell-based.
Another assay relates to atu operon. The note with it: stated as known; cited from earlier work.

Experimental for atuA: Routine microbiology and gene expression assays using 96 well plates were performed to grow the biosensor strains in the presence of environmental water samples, and the light output from the biosensor was used as a proxy to indicate the concentration of naphthenic acids in the water.
In the fourth step, all plasmid-encoded genetic circuits were introduced back into Pseudomonas OST1909 for validation.
“SIGMA” and “Acros” indicate two sources of primarily acyclic NA mixtures. […] A post hoc Tukey HSD test was conducted with each compound and mixture to test significant relationships between each group (α=0.05, n=3).

`CC(C)=CCC/C(C)=C/CO` [geraniol]: the “induction of the atu operon / atu genes” value in the assay on atuA is given as “do not induce”. The “induction of atu genes in Pseudomonas aeruginosa by acyclic terpenes” value in the assay on atu operon was “induced”. For `CC(C)=CCCC(C)CCO` (centres unmarked) [citronellol], the “induction of the atu operon / atu genes” value in the assay on atuA was “do not induce”. For the same compound, the “induction of atu genes in Pseudomonas aeruginosa by acyclic terpenes” value in the assay with atu operon was “induced”. Turning to `CC(C)=CCCC(C)CC(=O)O` (centres unmarked) [citronellic acid], the “induction of the atu operon / atu genes” value in the assay on atuA is recorded as “induce expression”.
